#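 Step 1: Grow cells in 96-well plates. Step 2: Expose to compound for 48 hours at 5 concentrations. Step 3: Interpolate endpoints linearly; if unreached, use highest concentration. GI50 = concentration required for 50% inhibition of growth. TGI is the concentration that stops growth completely.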
# Columns and labels:
# Assay in all cases: NCI tumour cell line growth inhibition, 48 h
# [1] = test system: 786-0 renal
# [2] = test system: A498 renal
# [3] = test system: A549 NSCLC
# [4] = test system: ACHN renal
# [5] = test system: BT-549 breast
# [6] = test system: CAKI-1 renal
# [7] = test system: COLO 205 colon
# [8] = test system: DU-145 prostate
# [9] = test system: EKVX NSCLC
# [10] = test system: HCC-2998 colon
# [11] = test system: HCT-116 colon
# [12] = test system: HCT-15 colon
# [13] = test system: HOP-62 NSCLC
# [14] = test system: HOP-92 NSCLC
# [15] = test system: HS 578T breast
# [16] = test system: HT29 colon
# [17] = test system: IGROV1 ovarian
# [18] = test system: K-562 leukemia
# [19] = test system: KM12 colon
# [20] = test system: LOX IMVI melanoma
# [21] = test system: M14 melanoma
# [22] = test system: MCF7 breast
# [23] = test system: MDA-MB-231 breast
# [24] = test system: MDA-MB-435
# [25] = test system: MOLT-4 leukemia
# [26] = test system: NCI-H226 lung
# [27] = test system: NCI-H23 lung
# [28] = test system: NCI-H460 lung
# [29] = test system: NCI-H522 lung
# [30] = test system: NCI/ADR-RES ovarian
# [31] = test system: OVCAR-3 ovarian
# [32] = test system: OVCAR-4 ovarian
# [33] = test system: OVCAR-5 ovarian
# [34] = test system: OVCAR-8 ovarian
# [35] = test system: PC-3 prostate
# [36] = test system: RPMI-8226 leukemia
# [37] = test system: RXF 393 renal
# [38] = test system: SF-268 CNS
# [39] = test system: SF-295 CNS
# [40] = test system: SK-MEL-2 melanoma
# [41] = test system: SK-MEL-28 melanoma
# [42] = test system: SK-MEL-5 melanoma
# [43] = test system: SK-OV-3 ovarian
# [44] = test system: SN12C renal
# [45] = test system: SNB-19 CNS
# [46] = test system: SNB-75 CNS
# [47] = test system: SW-620 colon
# [48] = test system: T-47D breast
# [49] = test system: TK-10 renal
# [50] = test system: U251 CNS
# [51] = test system: UACC-257 melanoma
# [52] = test system: UACC-62 melanoma
# [53] = test system: UO-31 renal
structure (smiles),measurement,setting,value
O=Cc1ccc(-c2ccc(-c3nc4ccccc4s3)cc2)o1,GI50,[1],> 100 µM
same,TGI,[1],> 100 µM
same,GI50,[2],3.21 µM
same,TGI,[2],18.8 µM
same,GI50,[3],> 100 µM
same,TGI,[3],> 100 µM
same,GI50,[4],> 100 µM
same,TGI,[4],> 100 µM
same,GI50,[5],> 100 µM
same,TGI,[5],> 100 µM
same,GI50,[6],> 100 µM
same,TGI,[6],> 100 µM
same,GI50,[7],> 100 µM
same,TGI,[7],> 100 µM
same,GI50,[8],35 µM
same,TGI,[8],> 100 µM
same,GI50,[9],> 100 µM
same,TGI,[9],> 100 µM
same,GI50,[10],> 100 µM
same,TGI,[10],> 100 µM
same,GI50,[11],> 100 µM
same,TGI,[11],> 100 µM
same,GI50,[12],90.4 µM
same,TGI,[12],> 100 µM
same,GI50,[13],> 100 µM
same,TGI,[13],> 100 µM
same,GI50,[14],94.3 µM
same,TGI,[14],> 100 µM
same,GI50,[15],> 100 µM
same,TGI,[15],> 100 µM
same,GI50,[16],> 100 µM
same,TGI,[16],> 100 µM
same,GI50,[17],> 100 µM
same,TGI,[17],> 100 µM
same,GI50,[18],> 100 µM
same,TGI,[18],> 100 µM
same,GI50,[19],46.5 µM
same,TGI,[19],> 100 µM
same,GI50,[20],60.2 µM
same,TGI,[20],> 100 µM
same,GI50,[21],> 100 µM
same,TGI,[21],> 100 µM
same,GI50,[22],1.53 µM
same,TGI,[22],56.6 µM
same,GI50,[23],22 µM
same,TGI,[23],68.1 µM
same,GI50,[24],> 100 µM
same,TGI,[24],> 100 µM
same,GI50,[25],> 100 µM
same,TGI,[25],> 100 µM
same,GI50,[26],5.03 µM
same,TGI,[26],> 100 µM
same,GI50,[27],67.7 µM
same,TGI,[27],> 100 µM
same,GI50,[28],76.4 µM
same,TGI,[28],> 100 µM
same,GI50,[29],> 100 µM
same,TGI,[29],> 100 µM
same,GI50,[30],97.7 µM
same,TGI,[30],> 100 µM
same,GI50,[31],16 µM
same,TGI,[31],74.1 µM
same,GI50,[32],> 100 µM
same,TGI,[32],> 100 µM
same,GI50,[33],> 100 µM
same,TGI,[33],> 100 µM
same,GI50,[34],70.7 µM
same,TGI,[34],> 100 µM
same,GI50,[35],45.2 µM
same,TGI,[35],> 100 µM
same,GI50,[36],20.9 µM
same,TGI,[36],> 100 µM
same,GI50,[37],62.7 µM
same,TGI,[37],> 100 µM
same,GI50,[38],72.6 µM
same,TGI,[38],> 100 µM
same,GI50,[39],41.7 µM
same,TGI,[39],> 100 µM
same,GI50,[40],> 100 µM
same,TGI,[40],> 100 µM
same,GI50,[41],> 100 µM
same,TGI,[41],> 100 µM
same,GI50,[42],96.4 µM
same,TGI,[42],> 100 µM
same,GI50,[43],> 100 µM
same,TGI,[43],> 100 µM
same,GI50,[44],> 100 µM
same,TGI,[44],> 100 µM
same,GI50,[45],> 100 µM
same,TGI,[45],> 100 µM
same,GI50,[46],> 100 µM
same,TGI,[46],> 100 µM
same,GI50,[47],89 µM
same,TGI,[47],> 100 µM
same,GI50,[48],> 100 µM
same,TGI,[48],> 100 µM
same,GI50,[49],22.4 µM
same,TGI,[49],54 µM
same,GI50,[50],35.2 µM
same,TGI,[50],> 100 µM
same,GI50,[51],> 100 µM
same,TGI,[51],> 100 µM
same,GI50,[52],> 100 µM
same,TGI,[52],> 100 µM
same,GI50,[53],> 100 µM
same,TGI,[53],> 100 µM
